Reference: patent US7067112B2, “Cephaibols: novel antiparasitics from Acremonium tubakii, process for their production, and use thereof” (Sanofi-Aventis Deutschland GmbH, priority 1999, dated 2006)
Converted amounts (≈) assume the structure as drawn. Square brackets hold non-standard residues; d marks the D form. Peptide text beside a SMILES is read from it. Hyp = O=C(O)[CH]1C[CH](O)CN1; Phe(ol) = N[CH](CO)Cc1ccccc1; Iva = CC[C](C)(N)C(=O)O; Aib = CC(C)(N)C(=O)O

Columns and labels:
[1] = system: Klebsiella oxytoca 1522 E; assay: minimal inhibitory concentration (MIC); format: cell-based
[2] = system: Pasteurella multocida P 48; assay: minimal inhibitory concentration (MIC); format: cell-based
[3] = system: Mycoplasma gallisepticum; assay: minimal inhibitory concentration (MIC); format: cell-based
[4] = system: Mycoplasma mycoides L
[5] = system: Staphylococcus aureus ATCC 29213; assay: minimal inhibitory concentration (MIC); format: cell-based
[6] = system: Pasteurella haemolytica P 53; assay: minimal inhibitory concentration (MIC); format: cell-based
[7] = system: Klebsiella aerogenes 1082 E; assay: minimal inhibitory concentration (MIC); format: cell-based
[8] = stability (physicochemical properties); settings: in neutral, mildly acidic and mildly alkaline medium
From the text: (§1) The physicochemical and spectroscopic properties of the cephaibols according to the invention can be summarized as follows: […]

[9] = system: Pasteurella haemolytica 7; assay: minimal inhibitory concentration (MIC); format: cell-based
[10] = system: Pseudomonas aeruginosa ATCC 9027; assay: minimal inhibitory concentration (MIC); format: cell-based
[11] = solubility (physicochemical properties)
From the text: as §1

[12] = system: Escherichia coli DC 2; assay: minimal inhibitory concentration (MIC); format: cell-based
[13] = system: Enterobacter cloacae P 99; assay: minimal inhibitory concentration (MIC); format: cell-based
[14] = system: Escherichia coli ATCC 25922; assay: minimal inhibitory concentration (MIC); format: cell-based
[15] = system: Escherichia coli 1507 E; assay: minimal inhibitory concentration (MIC); format: cell-based
[16] = system: larvae of the chicken roundworm Ascaridia galli; assay: larval development test (in vitro) for anthelmintic action; format: cell-based; settings: A. galli L2 larvae, 5 days medication
Protocol: For the testing of the action of the cephaibols on helminths, an in vitro test (larval development test) was carried out with larvae of the chicken roundworm Ascaridia galli. Embryonate eggs of A. galli were surface-sterilized by treatment with 5% strength sodium hypochlorite solution and, after removal of this solution, mechanically opened by means of rotating glass beads (5 mm). The hatched L2 larvae were enriched via larval enrichment processes, taken up in nutrient medium and incubated at 41° C. and 10% CO2.
48 hours after hatching, the larvae were incubated (41° C., 10% CO2) in microtiter plates (96 well) for 5 days with medicated medium (200 μl) in the concentrations 200, 100, 50 . . . 0.1 μg/ml. During the 5-day incubation period, motility, morphology, and vitality were checked microscopically and documented on a daily basis. After medication, the larval culture was incubated for 48 hours with Neutral Red in a concentration of 0.16%; after removal of the Neutral Red by change of medium, the enrichment of the vital dye in the intestine of the larvae was assessed as an index for active food intake and thus as proof of the vitality. The medication of the larvae with cephaibol A in the concentrations 200, 100, 50, and 25 μg/ml led to 100% mortality; at a concentration of 12.5 μg/ml and 6.25 μg/ml, the mortality was 92% and 20% respectively.

[17] = system: Enterococcus faecalis ATCC 29212; assay: minimal inhibitory concentration (MIC); format: cell-based
[18] = system: Enterobacter cloacae 1321 E; assay: minimal inhibitory concentration (MIC); format: cell-based
[19] = system: Escherichia coli TEM; assay: minimal inhibitory concentration (MIC); format: cell-based
[20] = system: Escherichia coli DC 0; assay: minimal inhibitory concentration (MIC); format: cell-based
[21] = system: Streptococcus pyogenes 77 A; assay: minimal inhibitory concentration (MIC); format: cell-based
[22] = system: Bordetella bronchiseptica 9; assay: minimal inhibitory concentration (MIC); format: cell-based
[23] = system: Pasteurella multocida 3;tox.pos.; assay: minimal inhibitory concentration (MIC); format: cell-based
[24] = system: cat flea=Ctenocephalides felis; assay: flea larval test (action on ectoparasites); format: in vivo; settings: depending on the dose (2000, 1000, 500, 250 ppm etc. in blood meal), in comparison with the solvent control
Protocol: The action against ectoparasites was checked in the flea larval test (cat flea=Ctenocephalides felis). 5 mg of cephaibol A were dissolved in 0.5 ml of acetone and mixed into 500 mg of blood meal (defibrinated sheep blood). After the solvent had evaporated, 2 g of quartz sand were mixed with medicated blood meal such that preparation concentrations of 2000, 1000, 500, 250 ppm etc. resulted. 15 flea eggs per medicated sample or solvent control were added to the mixture of medicated blood meal and quartz sand, which was then incubated at 37° C. and high atmospheric humidity. The larval development, pupation and development to the adult stage were checked at an interval of 3–5 days and the mortality rates were documented.

[25] = system: Mycoplasma mycoides LC
[26] = system: Enterococcus hirae ATCC 10541; assay: minimal inhibitory concentration (MIC); format: cell-based
[27] = system: Streptococcus pyogenes 308 A; assay: minimal inhibitory concentration (MIC); format: cell-based
[28] = system: Pseudomonas aeruginosa 1771; assay: minimal inhibitory concentration (MIC); format: cell-based
[29] = system: Pseudomonas aeruginosa ATCC 27853; assay: minimal inhibitory concentration (MIC); format: cell-based
[30] = system: Staphylococcus aureus 285; assay: minimal inhibitory concentration (MIC); format: cell-based
[31] = system: Bordetella bronchiseptica ATCC 4617; assay: minimal inhibitory concentration (MIC); format: cell-based
[32] = system: Pseudomonas aeruginosa 77/2; assay: minimal inhibitory concentration (MIC); format: cell-based
[33] = system: Pseudomonas aeruginosa 1771 M; assay: minimal inhibitory concentration (MIC); format: cell-based
[34] = system: Bordetella bronchiseptica 10; assay: minimal inhibitory concentration (MIC); format: cell-based

CCC(C)(NC(=O)C(CC(C)C)NC(=O)CNC(=O)C(C)(C)NC(=O)C(C)(C)NC(=O)C(C)(C)NC(=O)C(C)(C)NC(=O)C(Cc1ccccc1)NC(C)=O)C(=O)NC(C)(C)C(=O)N1CC(O)CC1C(=O)NC(CCC(N)=O)C(=O)NC(C)(CC)C(=O)N1CC(O)CC1C(=O)NC(C)(C)C(=O)N1CCCC1C(=O)NC(CO)Cc1ccccc1 (stereo not drawn) [Cephaibol A, AcPhe-Aib-Aib-Aib-Aib-Gly-Leu-Iva-Aib-Hyp-Gln-Iva-Hyp-Aib-Pro-Phe-ol] (Ac-F[Aib][Aib][Aib][Aib]GL[Iva][Aib][Hyp]Q[Iva][Hyp][Aib]P[Phe(ol)]; configuration not given here)
MIC [1]: >128 µg/mL
MIC [2]: >128 µg/mL
MIC [3]: 64 µg/mL (≈ 38.3 µM)
MIC [4]: 64 µg/mL (≈ 38.3 µM)
MIC [5]: 16 µg/mL (≈ 9.58 µM)
MIC [6]: >128 µg/mL
MIC [7]: >128 µg/mL
stability [8]: stable
MIC [9]: >128 µg/mL
MIC [10]: >128 µg/mL
solubility in polar organic solvents ([11]; polar organic solvents): soluble
solubility in water ([11]; water): only slightly soluble
MIC [12]: >128 µg/mL
MIC [13]: >128 µg/mL
MIC [14]: >128 µg/mL
MIC [15]: >128 µg/mL
mortality ([16]; 6.25 μg/ml): 20%
mortality ([16]; 12.5 μg/ml): 92%
mortality ([16]; 25 μg/ml): 100%
mortality ([16]; 50 μg/ml): 100%
mortality ([16]; 100 μg/ml): 100%
mortality ([16]; 200 μg/ml): 100%
MIC [17]: 64 µg/mL (≈ 38.3 µM)
MIC [18]: >128 µg/mL
MIC [19]: >128 µg/mL
MIC [20]: >128 µg/mL
MIC [21]: >128 µg/mL
MIC [22]: >128 µg/mL
MIC [23]: >128 µg/mL
larvicidal action [24]: > 90%
MIC [25]: 128 µg/mL (≈ 76.6 µM)
MIC [26]: 64 µg/mL (≈ 38.3 µM)
MIC [27]: 32 µg/mL (≈ 19.2 µM)
MIC [28]: >128 µg/mL
MIC [29]: >128 µg/mL
MIC [30]: 8 µg/mL (≈ 4.79 µM)
MIC [31]: >128 µg/mL
MIC [32]: >128 µg/mL
MIC [33]: >128 µg/mL
MIC [34]: >128 µg/mL
